Source: PubChem BioAssay AID248 (DTP/NCI, 2004)
Several values for one entry are separate records, joined by “and”; a condition that tells them apart may be missing. Equal entries are not always repeated. Inconclusive results and toxic doses are left out. Cut-off read from the data, not from the text of the source: active = T/C of 150% or more; inactive = T/C below 125%.

Test system: L1210 leukemia ip in BDF1 mice, survival T/C
Test: NCI In Vivo Anticancer Drug Screen. Data for tumor model L1210 Leukemia (intraperitoneal) in B6D2F1 (BDF1) mice
Details: endpoint: mean survival time, higher = longer survival
Summary of the method: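 Tumor was transplanted into mice, which were then dosed with test compound or vehicle alone. Survival was recorded for each group, and the treated figure was expressed relative to the control figure.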

[1] = dose: 100.0 mg/kg/injection, schedule: Q04DX003 (ip), vehicle: saline
[2] = dose: 100.0 mg/kg/injection, schedule: Q04DX003 (ip), vehicle: saline with Tween-80
[3] = dose: 200.0 mg/kg/injection, schedule: Q04DX003 (ip), vehicle: saline with Tween-80
[4] = dose: 100.0 mg/kg/injection, schedule: Q01DX009 (ip), vehicle: saline with Tween-80
[5] = dose: 200.0 mg/kg/injection, schedule: Q01DX009 (ip), vehicle: saline with Tween-80
[6] = dose: 400.0 mg/kg/injection, schedule: Q01DX009 (ip), vehicle: saline with Tween-80
[7] = dose: 400.0 mg/kg/injection, schedule: Q04DX003 (ip), vehicle: saline with Tween-80
[8] = dose: 100.0 mg/kg/injection, schedule: Q01DX009 (ip), vehicle: Klucel (hydroxypropylcellulose) (HPC)
[9] = dose: 100.0 mg/kg/injection, schedule: Q04DX003 (ip), vehicle: Klucel (hydroxypropylcellulose) (HPC)
[10] = dose: 200.0 mg/kg/injection, schedule: Q01DX009 (ip), vehicle: Klucel (hydroxypropylcellulose) (HPC)
[11] = dose: 200.0 mg/kg/injection, schedule: Q04DX003 (ip), vehicle: Klucel (hydroxypropylcellulose) (HPC)
[12] = dose: 400.0 mg/kg/injection, schedule: Q01DX009 (ip), vehicle: Klucel (hydroxypropylcellulose) (HPC)
[13] = dose: 400.0 mg/kg/injection, schedule: Q04DX003 (ip), vehicle: Klucel (hydroxypropylcellulose) (HPC)

Measured: T/C

CC(N)Cc1ccccc1 (stereo not drawn)
inactive: dose: 1.17 mg/kg/injection, schedule: Q04DX003 (ip), vehicle: saline 98 % of control | dose: 2.34 mg/kg/injection, schedule: Q04DX003 (ip), vehicle: saline 98 % of control | dose: 2.5 mg/kg/injection, schedule: Q04DX003 (ip), vehicle: saline 100 % of control | dose: 4.68 mg/kg/injection, schedule: Q01DX009 (ip), vehicle: saline 94 % of control | dose: 4.68 mg/kg/injection, schedule: Q04DX003 (ip), vehicle: saline 93 % of control | dose: 5.0 mg/kg/injection, schedule: Q04DX003 (ip), vehicle: saline 96 % of control | dose: 6.25 mg/kg/injection, schedule: Q01DX009 (ip), vehicle: saline 103 % of control | dose: 9.37 mg/kg/injection, schedule: Q01DX009 (ip), vehicle: saline 93 % of control | dose: 9.37 mg/kg/injection, schedule: Q04DX003 (ip), vehicle: saline 106 % of control | dose: 10.0 mg/kg/injection, schedule: Q04DX003 (ip), vehicle: saline 97 % of control | dose: 12.5 mg/kg/injection, schedule: Q01DX001 (ip), vehicle: saline 96 % of control | dose: 12.5 mg/kg/injection, schedule: Q01DX009 (ip), vehicle: saline 97 % of control | dose: 18.74 mg/kg/injection, schedule: Q04DX003 (ip), vehicle: saline 107 % of control | dose: 18.75 mg/kg/injection, schedule: Q01DX009 (ip), vehicle: saline 87 % of control | dose: 18.75 mg/kg/injection, schedule: Q04DX003 (ip), vehicle: saline 97 % of control | dose: 20.0 mg/kg/injection, schedule: Q04DX003 (ip), vehicle: saline 97 % of control | dose: 25.0 mg/kg/injection, schedule: Q01DX001 (ip), vehicle: saline 101 % of control | dose: 25.0 mg/kg/injection, schedule: Q01DX009 (ip), vehicle: saline 100 % of control | dose: 25.0 mg/kg/injection, schedule: Q04DX003 (ip), vehicle: saline 100 % of control | dose: 37.48 mg/kg/injection, schedule: Q03HX024 (ip), vehicle: saline 96 % of control | dose: 37.5 mg/kg/injection, schedule: Q01DX009 (ip), vehicle: saline 103 % of control | dose: 37.5 mg/kg/injection, schedule: Q04DX003 (ip), vehicle: saline 108 % of control | dose: 40.0 mg/kg/injection, schedule: Q04DX003 (ip), vehicle: saline 103 % of control | dose: 50.0 mg/kg/injection, schedule: Q01DX001 (ip), vehicle: saline 109 % of control | dose: 50.0 mg/kg/injection, schedule: Q01DX009 (ip), vehicle: saline 101 % of control | dose: 50.0 mg/kg/injection, schedule: Q04DX003 (ip), vehicle: saline 100 % of control | dose: 75.0 mg/kg/injection, schedule: Q04DX003 (ip), vehicle: saline 100 % of control | dose: 100.0 mg/kg/injection, schedule: Q01DX001 (ip), vehicle: saline 102 % of control | [1] 105 % of control

CC(C)(CS(C)(=O)=O)NC(=O)NCCCl
inactive: dose: 100.0 mg/kg/injection, schedule: Q04DX002 (ip), vehicle: saline 103 % of control | dose: 200.0 mg/kg/injection, schedule: Q04DX002 (ip), vehicle: saline 92 % of control | dose: 400.0 mg/kg/injection, schedule: Q04DX002 (ip), vehicle: saline 103 % of control

CCCCP(=O)(CCCC)CCP(=O)(CCCC)CCCC
inactive: [2] 88 % of control | [3] 97 % of control

C/C(=N\N=C(/C)c1ccc2ccccc2c1)c1ccc2ccccc2c1
inactive: [2] 94 % of control | [3] 91 % of control

CCCC(=O)Oc1ccc2c(C)cc(=O)oc2c1
inactive: [4] 102 % of control | [2] 94 % of control | [5] 104 % of control | [3] 100 % of control | [6] 106 % of control | [7] 100 % of control

CC(=O)Nc1ccc(-c2cnc3ccccc3c2)cc1
inactive: dose: 5.0 mg/kg/injection, schedule: Q01DX001 (ip), vehicle: saline 106 % of control | dose: 10.0 mg/kg/injection, schedule: Q01DX001 (ip), vehicle: saline 106 % of control | dose: 20.0 mg/kg/injection, schedule: Q01DX001 (ip), vehicle: saline 97 % of control | dose: 40.0 mg/kg/injection, schedule: Q01DX001 (ip), vehicle: saline 90 % of control | dose: 80.0 mg/kg/injection, schedule: Q01DX001 (ip), vehicle: saline 95 % of control

CCOP(=O)(/C=C/c1ccccc1)OCC
inactive: [1] 109 % of control | dose: 200.0 mg/kg/injection, schedule: Q04DX003 (ip), vehicle: saline 98 % of control | dose: 400.0 mg/kg/injection, schedule: Q04DX003 (ip), vehicle: saline 87 % of control

O=C(Nc1ccc(F)c(Cl)c1)Nc1ccc(Cl)c(C(F)(F)F)c1
inactive: [4] 88 % of control | [5] 98 % of control

CCOC(=O)c1cccnc1NC(=O)c1ccccc1
inactive: dose: 50.0 mg/kg/injection, schedule: Q04DX002 (ip), vehicle: Klucel (hydroxypropylcellulose) (HPC) 97 % of control | dose: 100.0 mg/kg/injection, schedule: Q04DX002 (ip), vehicle: Klucel (hydroxypropylcellulose) (HPC) 97 % of control and 103 % of control | dose: 200.0 mg/kg/injection, schedule: Q04DX002 (ip), vehicle: Klucel (hydroxypropylcellulose) (HPC) 100 % of control and 101 % of control | dose: 800.0 mg/kg/injection, schedule: Q04DX002 (ip), vehicle: Klucel (hydroxypropylcellulose) (HPC) 105 % of control

COC(=O)c1ccccc1NC(=O)Nc1ccccc1
inactive: [8] 108 % of control | [9] 101 % of control | [10] 101 % of control | [11] 101 % of control | [12] 100 % of control | [13] 98 % of control

COc1ccc(CC(N)C(=O)O)cc1 (stereo not drawn)
inactive: [8] 103 % of control | [9] 101 % of control | [10] 92 % of control | [11] 101 % of control | [13] 106 % of control

N#CCC1CC=CCC1 (stereo not drawn)
inactive: dose: 100.0 mg/kg/injection, schedule: Q01DX001 (ip), vehicle: carboxymethylcellulose (CMC) 98 % of control | dose: 200.0 mg/kg/injection, schedule: Q01DX001 (ip), vehicle: carboxymethylcellulose (CMC) 98 % of control | dose: 400.0 mg/kg/injection, schedule: Q01DX001 (ip), vehicle: carboxymethylcellulose (CMC) 104 % of control

O=C1CCC(c2cccc([N+](=O)[O-])c2)=NN1
inactive: [8] 89 % of control | [10] 93 % of control | [12] 89 % of control

O=C1Cc2ccccc21
inactive: [4] 97 % of control | [2] 95 % of control | [5] 97 % of control | [3] 94 % of control | [6] 96 % of control | [7] 98 % of control

Cc1cc[c]([Hg][c]2ccc(C)cc2)cc1
inactive: [9] 97 % of control | [11] 103 % of control | [13] 94 % of control

C1CCN[N-]C1.C1CCN[N-]C1.[Cl][Pt+2]([Cl])([Cl])[Cl]
inactive: dose: 25.0 mg/kg/injection, schedule: Q04DX003 (ip), vehicle: water 111 % of control | dose: 50.0 mg/kg/injection, schedule: Q04DX003 (ip), vehicle: water 102 % of control | dose: 100.0 mg/kg/injection, schedule: Q04DX003 (ip), vehicle: water 102 % of control

CCCCC(C)C(=O)Nc1cccc(O)c1 (stereo not drawn)
inactive: [4] 92 % of control | [5] 92 % of control | [6] 90 % of control
